According to the CheMixHub ionic liquid set:

Test: xn = mol fraction of the nth substance listed

CC[n+]1ccn(C)c1C.O=S(=O)([N-]S(=O)(=O)C(F)(F)F)C(F)(F)F + COC(=O)OC
viscosity [mPa·s], 101.3 kPa
Conditions | 288.15 K | 293.15 K | 298.15 K | 303.15 K | 308.15 K | 313.15 K
x1 = 0.002023 | 0.685 | 0.64 | 0.601 | 0.564 | 0.532 | 0.502
x1 = 0.003635 | 0.702 | 0.655 | 0.613 | 0.576 | 0.542 | 0.512
x1 = 0.004511 | 0.715 | 0.668 | 0.625 | 0.589 | 0.556 | 0.525
x1 = 0.006328 | 0.731 | 0.682 | 0.637 | 0.599 | 0.563 | 0.531
x1 = 0.007386 | 0.745 | 0.694 | 0.65 | 0.609 | 0.573 | 0.541
x1 = 0.008644 | 0.76 | 0.706 | 0.66 | 0.618 | 0.58 | 0.548
x1 = 0.01069 | 0.79 | 0.73 | 0.681 | 0.638 | 0.603 | 0.569
x1 = 0.01174 | 0.798 | 0.741 | 0.691 | 0.646 | 0.607 | 0.571
x1 = 0.01299 | 0.815 | 0.757 | 0.705 | 0.66 | 0.619 | 0.582
x1 = 0.01405 | 0.825 | 0.766 | 0.714 | 0.666 | 0.625 | 0.588
x1 = 0.01538 | 0.844 | 0.782 | 0.728 | 0.68 | 0.637 | 0.599
x1 = 0.01591 | 0.848 | 0.786 | 0.731 | 0.683 | 0.639 | 0.601
x1 = 0.01645 | 0.854 | 0.791 | 0.736 | 0.687 | 0.643 | 0.605
x1 = 0.01685 | 0.86 | 0.796 | 0.74 | 0.691 | 0.647 | 0.608
x1 = 0.01703 | 0.864 | 0.8 | 0.744 | 0.694 | 0.651 | 0.611
x1 = 0.02124 | 0.91 | 0.841 | 0.781 | 0.727 | 0.681 | 0.639
x1 = 0.02489 | 0.946 | 0.873 | 0.81 | 0.755 | 0.706 | 0.662
x1 = 0.02663 | 0.965 | 0.891 | 0.826 | 0.771 | 0.72 | 0.676
x1 = 0.0275 | 0.978 | 0.903 | 0.837 | 0.78 | 0.729 | 0.683
x1 = 0.03106 | 1.005 | 0.928 | 0.86 | 0.801 | 0.75 | 0.702
x1 = 0.03264 | 1.017 | 0.939 | 0.871 | 0.811 | 0.759 | 0.711
x1 = 0.03671 | 1.052 | 0.972 | 0.902 | 0.839 | 0.784 | 0.735
x1 = 0.04003 | 1.084 | 1.001 | 0.928 | 0.864 | 0.807 | 0.756
x1 = 0.04547 | 1.132 | 1.046 | 0.97 | 0.903 | 0.843 | 0.79
x1 = 0.04804 | 1.154 | 1.065 | 0.989 | 0.92 | 0.859 | 0.805
x1 = 0.05983 | 1.271 | 1.171 | 1.086 | 1.01 | 0.942 | 0.881

OCC(F)(F)F + COP(=O)([O-])OC.Cn1cc[n+](C)c1
viscosity [mPa·s], 101 kPa
Conditions | 298.15 K | 333.15 K
x2 = 0.4904 | 42.9 | –
x2 = 0.803 | 158.2 | 31.5

CCCO + CS(=O)(=O)[O-].C[N+](C)(CCO)CCO
101 kPa, x2 = 0
Conditions | viscosity [mPa·s]
298.15 K | 1.95
303.15 K | 1.73
308.15 K | 1.545
313.15 K | 1.383
318.15 K | 1.247
323.15 K | 1.136

CC(=O)[O-].CC[n+]1ccn(C)c1 + CS(C)=O
298.1 K, 100 kPa
Conditions | electrical conductivity [S/m]
x1 = 0.108 | 0.94
x1 = 0.653 | 0.65

CC[NH+](CC)CC.O=S(=O)([O-])O + CS(C)=O
101 kPa
Conditions | viscosity [mPa·s]
298.15 K, x1 = 0.011 | 3.84
298.15 K, x2 = 0.0244 | 228
298.15 K, x2 = 0.199 | 178
298.15 K, x2 = 0.9539 | 9.02
303.15 K, x1 = 0.011 | 3.01
303.15 K, x2 = 0.653 | 40.58
308.15 K, x2 = 0.2473 | 97.6
308.15 K, x2 = 0.4004 | 74.6

CC[n+]1ccn(C)c1.CS(=O)(=O)[O-] + CS(C)=O
101 kPa, x1 = 0.3333
Conditions | viscosity [mPa·s]
283.15 K | 5.66
288.15 K | 5.04
293.15 K | 4.47
298.15 K | 3.94
303.15 K | 3.47
308.15 K | 3.04
313.15 K | 2.66
318.15 K | 2.33
323.15 K | 2.05
328.15 K | 1.81
333.15 K | 1.63
338.15 K | 1.49
343.15 K | 1.4
348.15 K | 1.36
353.15 K | 1.33

CCCO + C[C@H](N)C(=O)[O-].C[N+](C)(C)CCO
100 kPa, x2 = 0
Conditions | viscosity [mPa·s]
288.12 K | 2.19
289.34 K | 2.13
290.54 K | 2.07
291.73 K | 2
292.91 K | 1.95
294.09 K | 1.89
295.27 K | 1.84
296.45 K | 1.78
297.63 K | 1.73
298.8 K | 1.68
299.98 K | 1.63
301.16 K | 1.58
302.33 K | 1.52
303.51 K | 1.48
304.68 K | 1.43
305.86 K | 1.38
307.04 K | 1.34
308.21 K | 1.29

CC(=O)[O-].CC[n+]1ccn(C)c1 + Cn1ccnc1 + CCOC(C)=O
298.15 K, 101 kPa, x1 = 1, x2 = 0
Conditions | electrical conductivity [S/m] | viscosity [mPa·s]
– | 0.297 | 133.9

CCCC[n+]1ccn(C)c1.N#C[N-]C#N + F[B-](F)(F)F.[Li+]
101 kPa, x1 = 1
Conditions | electrical conductivity [S/m]
288.15 K | 0.596
298.15 K | 0.925
333.15 K | 2.77

CCCC[n+]1ccn(C)c1.N#C[N-]C#N + F[P-](F)(F)(F)(F)F.[Li+]
101 kPa, x1 = 1
Conditions | electrical conductivity [S/m]
288.15 K | 0.596
298.15 K | 0.925
333.15 K | 2.77

CC(=O)[O-].CC[n+]1ccn(C)c1 + N#C[S-].[Na+]
101 kPa, x2 = 0
Conditions | electrical conductivity [S/m] | viscosity [mPa·s]
303.15 K | 0.374 | 93.6
313.15 K | 0.587 | 55.5

CCCC[N+](C)(CCCC)CCCC.[Cl-] + NC(N)=NCCC[C@H](N)C(=O)O + O
313.15 K, 101.3 kPa
Conditions | viscosity [mPa·s]
x2 = 0, x1 = 0.0007203 | 0.67
x2 = 0, x1 = 0.00144 | 0.7
